In patent US9329170B2, “Single cell gene expression for diagnosis, prognosis and identification of drug targets” (The Board of Trustees of the Leland Stanford Junior …, priority 2009, dated 2016):

Test system: murine breast cancer stem cells
Assay: clonogenic ability of murine breast cancer stem cells
Assay type: cell-based
Conditions: short, 24 hour exposure to the inhibitor; p<0.02, t test
Experimental: Many of these genes have been linked to self renewal and cancer. These include the insulin growth factor binding partner IGFBP3, the HOX family members HOXA3, HOXA5, ME1S1 as well as transcription factors like ETS1, ETS2, RUNX2 and STAT3. It was tested whether the transcription factor STAT3 is a bona fide cancer stem cell regulator. STAT3 plays a role in the maintenance of both ES cells and HSCs. […] Next, when we examined immunochemistry analysis of breast tumors the STAT3 positive cells tended to be concentrated on the invasive edge of the cancer and the protein was not seen in the more differentiated-looking cells in the interior parts of tumors. Finally, there are small molecule inhibitors of STAT3. Such inhibitors can be tested in cancer stem cell models. The effect of the STAT3 inhibitor cucurbitacin on the clonogenic ability of murine breast cancer stem cells was tested.

cucurbitacin was tested, and the “reduction of the number of colonies” value was ~50%.
